“Also recorded” adds a separate entry of the source.
Assays:
[1] = test system: nicotine-induced antinociception; test: Blockade of nicotine-induced antinociception, tail-flick test; assay type: in vivo, mice; details: for AD50, nicotine-induced antinociception in tail-flick test: s.c. administration; for AD50, nicotine-induced antinociception in tail-flick test / Blockade of nicotine-induced antinociception (in words) / Relative potency in blocking nicotine's antinociceptive effect (in words, comparator in the value) / AD50 Tail-Flick: mice; for Blockade of nicotine-induced antinociception (in words) / Relative potency in blocking nicotine's antinociceptive effect (in words, comparator in the value): tail-flick; for Tail-flick, % blockade @ dose: s.c.; for AD50 Tail-Flick: blocking antinociception of nicotine 2.5 mg/kg, systemic administration
Description: Anitinociception. The tail-flick method of D'Amour and Smith (1941) as modified by Dewey et al. (1970) was used. A control response (2-4 s) was determined for each animal before treatment, and a test latency was determined after drug administration. To minimize tissue damage, a maximum latency of 10 s was imposed. Antinociceptive response was calculated as percent maximum possible effect (% MPE), where % MPE=[((test-control)/(10-control))×100], Groups of 8 to 12 animals were used for each dose and for each treatment. Mice were tested 5 min after nicotine administration for the dose-response evaluation. Antagonism studies were carried out by pretreating the mice s.c. with either saline or various drugs at different times before nicotine. The animals were tested 5 min after administration of nicotine.
(§1) Data were analyzed statistically by an analysis of variance followed by the Fisher's P least-significant difference multiple comparison test. The null hypothesis was rejected at the […].

[2] = test system: nicotine-induced seizures; test: Nicotine-induced seizure activity; assay type: in vivo, mice; details: saline pretreatment, nicotine 9 mg/kg challenge
Description: Seizure Activity. Following s.c. injection of nicotine at a dose of 9 mg/kg, each animal was placed in a 30 cm×30 cm Plexiglass cage and observed for 5 min. […] This amount of time was chosen because seizures occur very quickly after nicotine administration. Results are expressed as percentage seizure.

[3] = test system: discriminative stimulus effect of nicotine; test: Nicotine drug discrimination; assay type: in vivo; details: saline pretreatment, nicotine 0.4 mg/kg, rats
Description: Rats were individually housed in a temperature-controlled environment and were maintained on a diet (Agway Rodent Chow) that restricted their body weight to approximately 85% of their free feeding weight. Water was available ad libitum in the home cages. A two-lever operant drug nation paradigm (VI 15) was carried out in eight operant chambers (4 Lafayette model 80001 and 4 BRS/LVIE model s 002). Reinforcement was a Bioserv 45-mg precision dustless pellet. Data were collected automatically by two Commodore 64 microcomputers.
Rats were placed in an operant chamber 5 min after injections. […] Animals were required to meet a criterion of three successive days of 80% or greater correct-lever responding before testing was initiated. Injections were given 5 min before placing the animal in the operant chamber. The schedule of injections, was determined using a Latin Square design. Dose-response curves were determined for nicotine 5 min after s.c. injections.

[4] = test system: cocaine-induced hyperactivity; test: Locomotor activity, cocaine-induced hyperactivity; assay type: in vivo, mice; details: doses higher than 1 mg/kg
Description: Locomotor Activity. […] Interruptions of the photocell beams (two banks of eight cells each) were then recorded for the next 30 min. Data were expressed as number of photocell interruptions.

Dopamine transporter = target: T1, Dopamine transporter (Rattus norvegicus, UniProt P23977); details: brain; read-out: Dopamine [3H]WIN 35,428 IC50; cited from earlier work
T1 construct: from tissue; host or cells: brain

Serotonin transporter = target: T2, Serotonin transporter (Rattus norvegicus, UniProt P31652); details: brain; read-out: Serotonin [3H]Paroxetine IC50; cited from earlier work
T2 construct: from tissue; host or cells: brain

[5] = target: T3, Norepinephrine transporter (Rattus norvegicus, UniProt Q63380); details: brain; read-out: Norepinephrine [3H]Nisoxetime IC50; cited from earlier work
T3 construct: from tissue; host or cells: brain

[6] = test system: nicotine-induced hypothermia; test: Blockade of nicotine-induced hypothermia (body temperature); assay type: in vivo, mice; details: mice; for AD50 Hypothermia: blocking nicotine-induced hypothermia, systemic administration
Description: Body Temperature. Rectal temperature was measured by a thermistor probe (inserted 24 mm) and digital thermometer (Yellow Springs Instrument Co., Yellow Springs, Ohio). Readings were taken just before and at 30 min after the s.c. injection of nicotine. For antagonism studies, mice were pretreated with either saline or various drugs 10 min before nicotine. The difference in rectal temperature before and after treatment was calculated for each mouse. The ambient temperature of the laboratory varied from 21 to 24° C. from day to day.
as §1

T2 sequence (P31652 whole entry): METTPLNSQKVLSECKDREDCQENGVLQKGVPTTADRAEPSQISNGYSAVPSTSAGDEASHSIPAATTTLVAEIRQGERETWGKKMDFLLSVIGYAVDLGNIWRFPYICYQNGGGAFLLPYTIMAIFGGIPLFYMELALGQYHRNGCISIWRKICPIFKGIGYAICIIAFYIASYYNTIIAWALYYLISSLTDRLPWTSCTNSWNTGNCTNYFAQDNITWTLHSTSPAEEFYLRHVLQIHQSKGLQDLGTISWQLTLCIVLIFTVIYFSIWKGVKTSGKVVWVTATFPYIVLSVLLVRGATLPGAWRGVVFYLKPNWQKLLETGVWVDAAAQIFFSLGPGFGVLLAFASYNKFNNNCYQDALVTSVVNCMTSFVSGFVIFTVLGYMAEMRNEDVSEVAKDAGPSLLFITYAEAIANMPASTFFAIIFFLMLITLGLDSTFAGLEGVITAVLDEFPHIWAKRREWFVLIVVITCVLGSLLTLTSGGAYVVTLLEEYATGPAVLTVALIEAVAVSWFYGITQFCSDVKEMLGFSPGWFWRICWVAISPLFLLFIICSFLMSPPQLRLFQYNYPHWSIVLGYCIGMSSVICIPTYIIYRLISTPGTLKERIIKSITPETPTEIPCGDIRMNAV
T3 sequence (Q63380 1-617): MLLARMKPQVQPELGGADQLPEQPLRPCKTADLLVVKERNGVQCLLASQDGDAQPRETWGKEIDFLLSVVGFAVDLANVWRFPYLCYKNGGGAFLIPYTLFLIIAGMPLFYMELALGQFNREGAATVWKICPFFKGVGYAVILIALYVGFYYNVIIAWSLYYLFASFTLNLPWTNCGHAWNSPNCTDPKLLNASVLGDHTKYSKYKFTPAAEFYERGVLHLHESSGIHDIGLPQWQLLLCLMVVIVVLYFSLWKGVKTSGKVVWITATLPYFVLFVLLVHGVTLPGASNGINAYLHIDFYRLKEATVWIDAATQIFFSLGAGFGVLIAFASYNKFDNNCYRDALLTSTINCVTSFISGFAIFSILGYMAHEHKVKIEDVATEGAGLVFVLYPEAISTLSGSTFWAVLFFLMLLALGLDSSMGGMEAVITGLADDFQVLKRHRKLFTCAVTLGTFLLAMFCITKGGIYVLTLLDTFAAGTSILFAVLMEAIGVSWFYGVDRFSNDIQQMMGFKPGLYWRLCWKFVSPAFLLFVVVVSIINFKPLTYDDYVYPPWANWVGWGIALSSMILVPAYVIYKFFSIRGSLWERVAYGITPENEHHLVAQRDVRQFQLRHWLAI
T1 sequence (P23977 whole entry): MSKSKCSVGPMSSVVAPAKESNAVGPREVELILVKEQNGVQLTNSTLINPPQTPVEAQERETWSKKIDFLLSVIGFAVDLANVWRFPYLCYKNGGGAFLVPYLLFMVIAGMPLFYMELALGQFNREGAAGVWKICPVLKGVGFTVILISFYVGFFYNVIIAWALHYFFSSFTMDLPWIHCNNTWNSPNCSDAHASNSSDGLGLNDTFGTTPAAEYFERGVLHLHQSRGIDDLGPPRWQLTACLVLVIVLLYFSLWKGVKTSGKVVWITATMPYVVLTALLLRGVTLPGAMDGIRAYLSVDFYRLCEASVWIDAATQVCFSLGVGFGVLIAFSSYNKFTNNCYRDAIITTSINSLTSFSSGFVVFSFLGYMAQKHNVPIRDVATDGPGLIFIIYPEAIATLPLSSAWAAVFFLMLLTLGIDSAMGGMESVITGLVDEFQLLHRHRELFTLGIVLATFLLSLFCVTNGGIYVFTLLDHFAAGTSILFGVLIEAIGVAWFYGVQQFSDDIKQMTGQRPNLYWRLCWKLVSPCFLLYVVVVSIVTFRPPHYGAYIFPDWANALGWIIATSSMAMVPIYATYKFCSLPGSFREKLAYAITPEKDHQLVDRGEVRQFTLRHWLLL

CN1CCCC1c1cccnc1 (single isomer, unassigned; (-)) [Nicotine, (−)-Nicotine, reference compound]
ED50 ([1]; Mus musculus, read-out: ED50 value of nicotine, antinociception): 1.5 mg/kg
% Seizures (Mean) [2]: 100%
Drug discrimination % Test (Mean ± SE) [3]: 87 ± 8%

CC(N)Cc1ccccc1 (stereo not drawn) [Amphetamine, reference compound]
AD50, nicotine-induced antinociception in tail-flick test [1]: 36.9 μmol/hg
Blockade of nicotine-induced antinociception (in words) [1]: blocked nicotine-induced antinociception

CC(NC(C)(C)C)C(=O)c1cccc(Cl)c1 (stereo not drawn) [Bupropion, reference compound]
AD50, nicotine-induced antinociception in tail-flick test [1]: 8 μmol/hg
Blockade of nicotine-induced antinociception (in words) [1]: dose-dependently blocked
Relative potency in blocking nicotine's antinociceptive effect (in words, comparator in the value) [1]: as potent as GBR 12909

Cn1c(=O)c2c(ncn2C)n(C)c1=O [Caffeine, reference compound]
AD50, nicotine-induced antinociception in tail-flick test [1]: 32.4 μmol/hg
Blockade of nicotine-induced antinociception (in words) [1]: blocked nicotine-induced antinociception

CO[C@H]1CC=C2CCN3CCC4=C(CC(=O)OC4)[C@]23C1 [DHβE, Dihydro-β-erythroidine]
Effect of higher doses on mouse spontaneous activity [4]: significantly decreased mouse spontaneous activity

CNCCC(Oc1ccc(C(F)(F)F)cc1)c1ccccc1 (stereo not drawn) [Fluoxetine, reference compound]
Tail-flick, % blockade @ dose ([1]; @ 86.7 μmol/hg): 15% @ 86.7
Blockade of nicotine-induced antinociception (in words) [1]: failed to significantly block

Fc1ccc(C(OCCN2CCN(CCCc3ccccc3)CC2)c2ccc(F)cc2)cc1 [GBR 12909, reference compound]
AD50, nicotine-induced antinociception in tail-flick test [1]: 8.4 μmol/hg

CCN(CC)CC(=O)Nc1c(C)cccc1C [Lidocaine, reference compound]
Tail-flick, % blockade @ dose ([1]; @ 75 μmol/hg): 7% @ 75
Blockade of nicotine-induced antinociception (in words) [1]: failed to significantly block

COC(=O)C(c1ccccc1)C1CCCCN1 (stereo not drawn) [Methylphenidate, reference compound]
Tail-flick, % blockade @ dose ([1]; @ 74 μmol/hg): 5% @ 74
Blockade of nicotine-induced antinociception (in words) [1]: failed to block

CNCCC(Oc1ccccc1OC)c1ccccc1 (stereo not drawn) [Nisoxetine, reference compound]
AD50, nicotine-induced antinociception in tail-flick test [1]: 7.4 μmol/hg

CN1Cc2c(N)cccc2C(c2ccccc2)C1 (stereo not drawn) [Nomifensine, reference compound]
AD50, nicotine-induced antinociception in tail-flick test [1]: 1.7 μmol/hg
Blockade of nicotine-induced antinociception (in words) [1]: dose-dependently blocked
Relative potency in blocking nicotine's antinociceptive effect (in words, comparator in the value) [1]: five times more potent than GBR 12909

CCN(CC)CCOC(=O)c1ccc(N)cc1 [Procaine, reference compound]
Tail-flick, % blockade @ dose ([1]; @ 75 μmol/hg): 5% @ 75
Blockade of nicotine-induced antinociception (in words) [1]: failed to significantly block

COC(=O)C1C2CC[C@H](C[C@@H]1c1ccc(N)cc1)N2C (stereo partly drawn) [RTI-29]
AD50 Tail-Flick [1]: 6.8 μmol/hg
Relative potency in blocking nicotine's antinociceptive effect (in words, comparator in the value) [1]: one-half as potent as cocaine; also recorded: approximately the same activity as WIN 35,065-2
IC50 (Dopamine transporter): 9.8 nM
IC50 (Serotonin transporter): 5110 nM
IC50 [5]: 151 nM

COC(=O)[C@H]1[C@@H](c2ccc(Cl)cc2)C[C@H]2CC[C@H]1N2C [RTI-31]
AD50 Tail-Flick [1]: 7.2 μmol/hg
AD50 Hypothermia [6]: 1.1 μmol/hg
AD50, blockade of nicotine-induced hypothermia [6]: 1.1 µmol/kg
Blockade of nicotine-induced hypothermia (in words) [6]: significantly blocked
IC50 (Serotonin transporter): 44.5 nM

COC(=O)[C@H]1[C@@H](c2ccc(C)cc2)C[C@@H]2CC[C@H]1N2C [RTI-32]
AD50 Tail-Flick [1]: 2.0 μmol/hg
AD50 Hypothermia [6]: 31.7 μmol/hg
Blockade of nicotine-induced hypothermia (in words) [6]: significantly blocked
IC50 (Dopamine transporter): 1.7 nM
IC50 [5]: 60 nM
